The source of these data is the supplement of paper PMC11208160.

A short description of the data set: recombinant UMI read abundance after kanamycin selection (control-corrected) (log10(CPM+1)); higher = more efficient recombination; extreme values may be limits of the assay; sequences stand for … in AGTGCAGAGAAAATCGGCCAGTTTTCTCTGCCTGCAGTCCGCATGCCGTGGGACCCCTTGGGTTCTAACCTGTTGCCTAGATTTATGCAGCGGACTGCCTTTCTCCCAAAGTGATAAACCGG…AGGTTGGTTTCACT; site = the 11-nt donor. The method, boiled down:
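Sequencing read counts were converted to CPM, averaged over two replicates and scaled by control-derived factors. Results are given as log10(CPM+1). The reads covered the donor–target junction of recombinant UMIs from a pooled Escherichia coli screen of donor and donor-binding-loop pairs for the IS621 bridge recombinase.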
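Also: IS621 bridge recombinase in Escherichia coli cells against a fixed T5 target plasmid.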

As for “CCTATTTCATGGACCGGTTTTCCCGGTAATCCGTATTTGGC (site CCTATTTCTGC)”, the “recombinant UMI read abundance (log10)” value is 0.

For “CCTATTTCATGGACCGGTTTTCCCGGTAATCCGTATTTGTC (site CCTATTTCTGA)”, the “recombinant UMI read abundance (log10)” value turned out to be 0.

In the case of “CCTCCAACATGGACCGGTTTTCCCGGTAATCCGTATTTGTA (site CCTCCAACTTA)”, the “recombinant UMI read abundance (log10)” value was 0.0158.

Take “CCTCGGACATGGACCGGTTTTCCCGGTAATCCGTATTTGGG (site CCTCGGACTCC)”: the “recombinant UMI read abundance (log10)” value was 0.0416.

Turning to “CCTCTAGCATGGACCGGTTTTCCCGGTAATCCGTATTTGTA (site CCTCTAGCTTA)”, the “recombinant UMI read abundance (log10)” value is 0.352.

As to “CCTGAGACATGGACCGGTTTTCCCGGTAATCCGTATTTGAG (site CCTGAGACTCT)”, the “recombinant UMI read abundance (log10)” value turned out to be 0.00693.

As for “CCTGGAACATGGACCGGTTTTCCCGGTAATCCGTATTTGTT (site CATGGAACTAA)”, the “recombinant UMI read abundance (log10)” value turned out to be 0.0113.

Consider “CCTGGAACATGGACCGGTTTTCCCGGTAATCCGTATTTGTT (site CCTGGAACTAA)”, for which the “recombinant UMI read abundance (log10)” value was 0.00583.

As to “CCTGGAACATGGACCGGTTTTCCCGGTAATCCGTATTTGTT (site CGTGGAACTAA)”, the “recombinant UMI read abundance (log10)” value was 0.00754.

Consider “CCTGGAACATGGACCGGTTTTCCCGGTAATCCGTATTTGTT (site CTTGGAACTAA)”, for which the “recombinant UMI read abundance (log10)” value turned out to be 0.00851.

With “CCTGGTGCATGGACCGGTTTTCCCGGTAATCCGTATTTGAT (site CCAGGTGCTAT)”, the “recombinant UMI read abundance (log10)” value was determined as 0.00887.

As to “CCTGGTGCATGGACCGGTTTTCCCGGTAATCCGTATTTGAT (site CCCGGTGCTAT)”, the “recombinant UMI read abundance (log10)” value worked out at 0.00946.

On to “CCTGGTGCATGGACCGGTTTTCCCGGTAATCCGTATTTGAT (site CCGGGTGCTAT)”, for which the “recombinant UMI read abundance (log10)” value is 0.00642.

As for “CCTGGTGCATGGACCGGTTTTCCCGGTAATCCGTATTTGAT (site CCTGGTGCTAT)”, the “recombinant UMI read abundance (log10)” value came out at 0.494.

“CCTGTTCCATGGACCGGTTTTCCCGGTAATCCGTATTTGTC (site CCTGTTCCTGA)”: the “recombinant UMI read abundance (log10)” value is 0.

With “CCTGTTTCATGGACCGGTTTTCCCGGTAATCCGTATTTGAC (site CCTGTTTCTGT)”, the “recombinant UMI read abundance (log10)” value stood at 0.

For the sequence “CCTTAGCCATGGACCGGTTTTCCCGGTAATCCGTATTTGCC (site CCATAGCCTGG)”, the “recombinant UMI read abundance (log10)” value is 0.

In the case of “CCTTAGCCATGGACCGGTTTTCCCGGTAATCCGTATTTGCC (site CCCTAGCCTGG)”, the “recombinant UMI read abundance (log10)” value amounted to 0.

As for “CCTTAGCCATGGACCGGTTTTCCCGGTAATCCGTATTTGCC (site CCGTAGCCTGG)”, the “recombinant UMI read abundance (log10)” value was determined as 0.

Consider “CCTTAGCCATGGACCGGTTTTCCCGGTAATCCGTATTTGCC (site CCTTAGCCTGG)”, for which the “recombinant UMI read abundance (log10)” value is 0.

Regarding “CCTTCTACATGGACCGGTTTTCCCGGTAATCCGTATTTGAT (site CCTTCTACTAT)”, the “recombinant UMI read abundance (log10)” value was 0.

Take “CCTTGACCATGGACCGGTTTTCCCGGTAATCCGTATTTGAG (site CCTTGACCTCT)”: the “recombinant UMI read abundance (log10)” value came to 0.0135.

As to “CCTTGAGCATGGACCGGTTTTCCCGGTAATCCGTATTTGTA (site CCTTGAGCTTA)”, the “recombinant UMI read abundance (log10)” value turned out to be 0.013.

As for “CCTTGCACATGGACCGGTTTTCCCGGTAATCCGTATTTGAG (site CCTTGCACTCT)”, the “recombinant UMI read abundance (log10)” value was determined as 0.0135.

Take “CCTTGTGCATGGACCGGTTTTCCCGGTAATCCGTATTTGGA (site CCTTGTGCTTC)”: the “recombinant UMI read abundance (log10)” value is 0.0149.

Consider “CCTTTACCATGGACCGGTTTTCCCGGTAATCCGTATTTGCC (site AGACCGTCTCT)”, for which the “recombinant UMI read abundance (log10)” value is 0.00566.

With “CCTTTTACATGGACCGGTTTTCCCGGTAATCCGTATTTGCT (site CCATTTACTAG)”, the “recombinant UMI read abundance (log10)” value was 0.

Regarding “CCTTTTACATGGACCGGTTTTCCCGGTAATCCGTATTTGCT (site CCCTTTACTAG)”, the “recombinant UMI read abundance (log10)” value is 0.

As for “CCTTTTACATGGACCGGTTTTCCCGGTAATCCGTATTTGCT (site CCGTTTACTAG)”, the “recombinant UMI read abundance (log10)” value was 0.00369.

For “CCTTTTACATGGACCGGTTTTCCCGGTAATCCGTATTTGCT (site CCTTTTACTAG)”, the “recombinant UMI read abundance (log10)” value came to 0.

Take “CGAAATCCATGGACCGGTTTTCCCGGTAATCCGTATTTGCT (site CGAAATCCTAG)”: the “recombinant UMI read abundance (log10)” value is 0.783.

Consider “CGAAATCCATGGACCGGTTTTCCCGGTAATCCGTATTTGCT (site CGGAATCCTAA)”, for which the “recombinant UMI read abundance (log10)” value was 0.

For “CGAAATCCATGGACCGGTTTTCCCGGTAATCCGTATTTGTA (site CGAAATCCTTA)”, the “recombinant UMI read abundance (log10)” value is 1.11.

Take “CGAAATCCATGGACCGGTTTTCCCGGTAATCCGTATTTGTA (site CGGAATCCTAA)”: the “recombinant UMI read abundance (log10)” value was 0.00383.

With “CGAAATCCATGGACCGGTTTTCCCGGTAATCCGTATTTGTT (site CGAAATCCTAA)”, the “recombinant UMI read abundance (log10)” value was 0.953.

For the sequence “CGAAATCCATGGACCGGTTTTCCCGGTAATCCGTATTTGTT (site CGCAATCCTAA)”, the “recombinant UMI read abundance (log10)” value turned out to be 0.

As to “CGAAATCCATGGACCGGTTTTCCCGGTAATCCGTATTTGTT (site CGGAATCCTAA)”, the “recombinant UMI read abundance (log10)” value stood at 0.

“CGAAATCCATGGACCGGTTTTCCCGGTAATCCGTATTTGTT (site CGTAATCCTAA)”: the “recombinant UMI read abundance (log10)” value was 0.

For “CGAAATTCATGGACCGGTTTTCCCGGTAATCCGTATTTGTT (site CGAAATTCTAA)”, the “recombinant UMI read abundance (log10)” value is 0.945.

Take “CGAAATTCATGGACCGGTTTTCCCGGTAATCCGTATTTGTT (site CGGAATCCTAA)”: the “recombinant UMI read abundance (log10)” value came out at 0.

Consider “CGAACACCATGGACCGGTTTTCCCGGTAATCCGTATTTGCT (site CGAACACCTAG)”, for which the “recombinant UMI read abundance (log10)” value was 0.

Take “CGAACACCATGGACCGGTTTTCCCGGTAATCCGTATTTGCT (site CGATCATCTAG)”: the “recombinant UMI read abundance (log10)” value stood at 0.

Take “CGAACGTCATGGACCGGTTTTCCCGGTAATCCGTATTTGCT (site CGAACGTCTAG)”: the “recombinant UMI read abundance (log10)” value is 2.87.

For “CGAACGTCATGGACCGGTTTTCCCGGTAATCCGTATTTGCT (site CGATCATCTAG)”, the “recombinant UMI read abundance (log10)” value was found to be 0.

Consider “CGAAGAGCATGGACCGGTTTTCCCGGTAATCCGTATTTGAC (site CGAAGAGCTGT)”, for which the “recombinant UMI read abundance (log10)” value came out at 2.51.

Consider “CGAAGGGCATGGACCGGTTTTCCCGGTAATCCGTATTTGGT (site CGAAGGGCTAC)”, for which the “recombinant UMI read abundance (log10)” value came to 1.32.

With “CGAAGTACATGGACCGGTTTTCCCGGTAATCCGTATTTGCG (site CGAAGTACTCG)”, the “recombinant UMI read abundance (log10)” value worked out at 2.12.

As to “CGAATACCATGGACCGGTTTTCCCGGTAATCCGTATTTGTA (site CGAATACCTTA)”, the “recombinant UMI read abundance (log10)” value came to 0.

Turning to “CGAATATCATGGACCGGTTTTCCCGGTAATCCGTATTTGCG (site CGAATATCTCG)”, the “recombinant UMI read abundance (log10)” value amounted to 2.99.

Regarding “CGAATCGCATGGACCGGTTTTCCCGGTAATCCGTATTTGAT (site CGAATCGCTAT)”, the “recombinant UMI read abundance (log10)” value came to 2.72.

Regarding “CGAATGGCATGGACCGGTTTTCCCGGTAATCCGTATTTGCG (site GAGGGCACTAT)”, the “recombinant UMI read abundance (log10)” value is 0.0326.

With “CGACCAACATGGACCGGTTTTCCCGGTAATCCGTATTTGCT (site CGACCAACTAG)”, the “recombinant UMI read abundance (log10)” value was determined as 2.28.

“CGACCAACATGGACCGGTTTTCCCGGTAATCCGTATTTGCT (site CGATCATCTAG)”: the “recombinant UMI read abundance (log10)” value was 0.

“CGACCCGCATGGACCGGTTTTCCCGGTAATCCGTATTTGCG (site CGACCCGCTCG)”: the “recombinant UMI read abundance (log10)” value turned out to be 0.0234.

Turning to “CGACGACCATGGACCGGTTTTCCCGGTAATCCGTATTTGAA (site CGACGACCTTT)”, the “recombinant UMI read abundance (log10)” value is 0.00772.

With “CGACGGTCATGGACCGGTTTTCCCGGTAATCCGTATTTGCC (site TATGCCGCTAT)”, the “recombinant UMI read abundance (log10)” value came out at 0.

Take “CGACTAACATGGACCGGTTTTCCCGGTAATCCGTATTTGGA (site CAACTAACTTC)”: the “recombinant UMI read abundance (log10)” value came out at 1.44.

As to “CGACTAACATGGACCGGTTTTCCCGGTAATCCGTATTTGGA (site CCACTAACTTC)”, the “recombinant UMI read abundance (log10)” value was 0.226.

In the case of “CGACTAACATGGACCGGTTTTCCCGGTAATCCGTATTTGGA (site CGACTAACTTC)”, the “recombinant UMI read abundance (log10)” value worked out at 1.74.

As to “CGACTAACATGGACCGGTTTTCCCGGTAATCCGTATTTGGA (site CTACTAACTTC)”, the “recombinant UMI read abundance (log10)” value came to 0.554.

As to “CGAGAACCATGGACCGGTTTTCCCGGTAATCCGTATTTGGG (site CGAGAACCTCC)”, the “recombinant UMI read abundance (log10)” value came to 0.

Take “CGAGAACCATGGACCGGTTTTCCCGGTAATCCGTATTTGGG (site CGAGCACCTCC)”: the “recombinant UMI read abundance (log10)” value was determined as 0.00673.

As to “CGAGAACCATGGACCGGTTTTCCCGGTAATCCGTATTTGGG (site CGAGGACCTCC)”, the “recombinant UMI read abundance (log10)” value came to 0.0198.

As to “CGAGAACCATGGACCGGTTTTCCCGGTAATCCGTATTTGGG (site CGAGTACCTCC)”, the “recombinant UMI read abundance (log10)” value was determined as 0.00635.

As for “CGAGAAGCATGGACCGGTTTTCCCGGTAATCCGTATTTGCT (site CGAGAAGCTAG)”, the “recombinant UMI read abundance (log10)” value was 2.17.

Regarding “CGAGAAGCATGGACCGGTTTTCCCGGTAATCCGTATTTGTC (site CGAGAAGCTGA)”, the “recombinant UMI read abundance (log10)” value amounted to 2.25.

For the sequence “CGAGAGTCATGGACCGGTTTTCCCGGTAATCCGTATTTGCC (site CGAGAGTCTGG)”, the “recombinant UMI read abundance (log10)” value turned out to be 3.37.

Consider “CGAGAGTCATGGACCGGTTTTCCCGGTAATCCGTATTTGCC (site CGCGAGTCTGG)”, for which the “recombinant UMI read abundance (log10)” value came to 0.
